In brackets after ≈: the same amount, converted by molar mass. Activity calls are given as the source filed them. The rule behind the calls is not given here. Non-standard residues stand in square brackets, D forms with d. Residues, ends and D or L forms follow the SMILES beside them. ξ: configuration not given here. Pro(3ξ,4ξ-(CH2)4) = O=C(O)[C@H]1NCC2CCCCC21; Tic = O=C(O)[C@@H]1Cc2ccccc2CN1; dTic = O=C(O)[C@H]1Cc2ccccc2CN1; βAla = NCCC(=O)O
How the values were obtained:
Mycobacterium = assay: Antibacterial activity against Mycobacterium ranae ATCC 110; assay type: functional
[1] = Toxicity to mouse RBC assessed as hemolytic activity at 25 uM; assay type: cell-based, Erythrocyte; details: red blood cells, read-out: Activity
Mus musculus [2] = assay: Acute toxicity in mouse at 125 mg/kg, ip after 6 days; assay type: organism-based; parameters: dose 125 mg/kg, route intraperitoneal; details: in vivo, 144 h
Salmonella typhimurium = assay: Antibacterial activity against Salmonella Typhimurium ATCC 13311; assay type: functional, Salmonella enterica subsp. enterica serovar Typhimurium; details: Salmonella enterica
Bacillus subtilis [3] = assay: Antibacterial activity against Bacillus subtilis ATCC 43223; assay type: functional
Staphylococcus aureus [4] = assay: Antibacterial activity against methicillin/gentamicin/tetracycline resistant Staphylococcus aureus ATCC 33592; assay type: functional
Mus musculus [5] = assay: Acute toxicity in mouse at 25 mg/kg, ip after 6 days; assay type: organism-based; parameters: dose 25 mg/kg, route intraperitoneal; details: in vivo, 144 h
Mus musculus [6] = assay: Acute toxicity in mouse at 5 mg/kg, ip after 6 days; assay type: organism-based; parameters: dose 5 mg/kg, route intraperitoneal; details: in vivo, 144 h
[7] = Toxicity to mouse RBC assessed as hemolytic activity at 100 uM; assay type: cell-based, Erythrocyte; details: red blood cells, read-out: Activity
Staphylococcus aureus [8] = assay: Antibacterial activity against methicillin/gentamicin/tetracycline resistant Staphylococcus aureus ATCC 33592 at 100 uM; assay type: functional, organism-based
Bacillus subtilis [9] = assay: Antibacterial activity against Bacillus subtilis ATCC 43223 at 100 uM; assay type: functional, organism-based

Structure (SMILES)	MIC (Mycobacterium)	hemolysis at 25 µM [1]	Activity (Mus musculus [2])	MIC (Salmonella typhimurium)	MIC (Bacillus subtilis [3])	MIC (Staphylococcus aureus [4])	Activity (Mus musculus [5])	Activity (Mus musculus [6])	hemolysis at 100 µM [7]	Activity (Staphylococcus aureus [8])	Activity (Bacillus subtilis [9])
CC(=O)NCCC(=O)N[C@@H](Cc1ccccc1)C(=O)N1Cc2ccccc2C[C@H]1C(=O)N1CC2CCCCC2[C@H]1C(=O)NCCC(=O)N[C@@H](CCCCN)C(=O)N1Cc2ccccc2C[C@H]1C(=O)N1CC2CCCCC2[C@H]1C(=O)NCCC(=O)N[C@@H](Cc1ccccc1)C(=O)N1Cc2ccccc2C[C@@H]1C(=O)N1CC2CCCCC2[C@H]1C(=O)NCCC(=O)N[C@@H](CCCCN)C(=O)N1Cc2ccccc2C[C@H]1C(=O)N[C@@H](CCCCN)C(=O)N[C@@H](CCCCN)C(=O)N[C@@H](CCCCN)C(=O)N[C@@H](CCCCN)C(N)=O (stereo partly specified) (Ac-[βAla]F[Tic][Pro(3ξ,4ξ-(CH2)4)][βAla]K[Tic][Pro(3ξ,4ξ-(CH2)4)][βAla]F[dTic][Pro(3ξ,4ξ-(CH2)4)][βAla]K[Tic]KKKK-NH2)	1 µM (≈ 2.5 µg/mL)	7.4%	Toxic	10 µM (≈ 25 µg/mL)	1 µM (≈ 2.5 µg/mL)	10 µM (≈ 25 µg/mL)	Toxic	Toxic	24.4%		
CC[C@H](C)[C@H](NC(=O)[C@H](CCC(=O)O)NC(=O)CNC(=O)[C@@H](NC(=O)[C@H](Cc1ccccc1)NC(=O)[C@H](C)NC(=O)[C@H](CCCCN)NC(=O)CNC(=O)[C@H](Cc1ccccc1)NC(=O)[C@H](CCCCN)NC(=O)CNC(=O)[C@H](C)NC(=O)[C@H](CO)NC(=O)[C@H](Cc1cnc[nH]1)NC(=O)[C@H](CC(C)C)NC(=O)[C@H](Cc1ccccc1)NC(=O)[C@H](CCCCN)NC(=O)CNC(=O)[C@H](NC(=O)CN)[C@@H](C)CC)C(C)C)C(=O)N[C@@H](CCSC)C(=O)N[C@@H](CCCCN)C(=O)N[C@@H](CO)C(N)=O										inactive	inactive

Source: ChEMBL document CHEMBL1145395, “De novo design of selective antibiotic peptides by incorporation of unnatural amino acids” (J Med Chem, 2007)
